Results as given in US8252832B2, “Kinesin inhibitors as cancer therapeutics” (Novartis AG, priority 2007, dated 2012).

Tests used:
Assay in all cases: CTG (CellTiter-Glo) screening assay
Format in all cases: cell-based
Settings in all cases: Homo sapiens
[1] = test system: HCT-116
From the text: Identification of tumor types that are the most sensitive to the KSP inhibitors of the present invention can be accomplished using an unbiased approach that uses several cell-based assays. The assays chosen were as follows: • CellTiter-Glo®. This is an assay designed to measure ATP concentration in a cell culture, and can be correlated to cell number. Briefly CellTiter-Glo® (Promega Corporation) is a homogeneous method using the single CellTiter-Glo® reagent to detect ATP wherein ATP in the assay drives the activity of a thermostable luciferase to create a luminescent signal which can then be measured and correlated with the number of viable cells. Briefly, for adherent cells, 1,000 to 5,000 cells/well were plated in 96-well plates (100 μl/well) and let to adhere for 24 hours before being treated with drug. For non-adherent cells, 1,000 to 10,000 cells/well were plated in 96-well plates (100 μl/well) and immediately treated with drug. Drug dilutions were prepared in DMSO at 1000 times the final concentration. These dilutions were then diluted 1/100 in growth media before being added to the cells (11 μl/well) to achieve the desired final concentration. […] Protocol for a 72 hour cell proliferation assay: The 72 hour assay was performed the same way as the 48 hour assay except for the following modifications: For adherent cells, 500 to 5,000 cells/well were plated in 96-well plates (90 μl/well cell growth media) and left to adhere for 24 hours before being treated with drug. For non-adherent cells, 1,000 to 10,000 cells/well were plated in 96-well plates (90 μl/well cell growth media) and immediately treated with drug. Data values presented represent the concentration of test compound required for a 50% reduction in growth. • LDH release. […] The enzymatic reaction is coupled to a chemical reaction that uses a tetrazolium salt to form a formazan that is red and can be detected by its absorbance at 490 nm. […]

[2] = test system: Colo-205
From the text: (§1) Identification of tumor types that are the most sensitive to the KSP inhibitors of the present invention can be accomplished using an unbiased approach that uses several cell-based assays. The assays chosen were as follows: • CellTiter-Glo®. This is an assay designed to measure ATP concentration in a cell culture, and can be correlated to cell number. Briefly CellTiter-Glo® (Promega Corporation) is a homogeneous method using the single CellTiter-Glo® reagent to detect ATP wherein ATP in the assay drives the activity of a thermostable luciferase to create a luminescent signal which can then be measured and correlated with the number of viable cells. Briefly, for adherent cells, 1,000 to 5,000 cells/well were plated in 96-well plates (100 μl/well) and let to adhere for 24 hours before being treated with drug. For non-adherent cells, 1,000 to 10,000 cells/well were plated in 96-well plates (100 μl/well) and immediately treated with drug. Drug dilutions were prepared in DMSO at 1000 times the final concentration. These dilutions were then diluted 1/100 in growth media before being added to the cells (11 μl/well) to achieve the desired final concentration. After 48 h in a 37° C. tissue culture incubator, the plates were processed for the CellTiter-Glo®assay according to the manufacturer's instructions. Protocol for a 72 hour cell proliferation assay: The 72 hour assay was performed the same way as the 48 hour assay except for the following modifications: For adherent cells, 500 to 5,000 cells/well were plated in 96-well plates (90 μl/well cell growth media) and left to adhere for 24 hours before being treated with drug. For non-adherent cells, 1,000 to 10,000 cells/well were plated in 96-well plates (90 μl/well cell growth media) and immediately treated with drug. Data values presented represent the concentration of test compound required for a 50% reduction in growth. • LDH release. The Cytotoxicity Detection KitPLUS (LDH) assay (Roche Diagnostics, Manheim, Germany) measures the amount of LDH released in the media by dying cells; LDH catalyzes the conversion of lactate into pyruvate. The enzymatic reaction is coupled to a chemical reaction that uses a tetrazolium salt to form a formazan that is red and can be detected by its absorbance at 490 nm. This assay measures the amount of cell death after drug treatment. Cells were plated at 10,000 cells/well in 96-well plates (100 μl/well). Adherent cells were let to adhere for 24 hours before being treated with drug, whereas non-adherent cells were immediately treated with drug. Drug dilutions were prepared in DMSO at 1000 times the final concentration. These dilutions were then diluted 1/100 in growth media before being added to the cells (11 μl/well) to achieve the desired final concentration. After 48 h in a 37° C. tissue culture incubator, the plates were processed for the Cytotoxicity Detection KitPLUS (LDH) assay according to the manufacturer's instructions. The media only values were subtracted from all the data points before analysis. Data values presented correspond to the compound concentration wherein LDH output is at half maximal level. • Caspase-Glo® 3/7. The Caspase-Glo® 3/7 Assay (Promega Corporation) is a homogeneous luminescent assay that measures caspase-3/7 activities. The assay provides a proluminescent caspase-3/7 DEVD-aminoluciferin substrate and a thermostable luciferase in a reagent optimized for caspase-3/7 activity, luciferase activity and cell lysis. Adding the single Caspase-Glo® 3/7 Reagent results in cell lysis, followed by caspase cleavage of the substrate. This liberates free aminoluciferin, which is consumed by the luciferase, generating a luminescent signal. The signal is proportional to caspase-3/7 activity. Data values presented correspond to the compound concentration wherein caspase 3/7 activity is at half maximal level.

[3] = test system: MV4; 11
From the text: as §1

CC(C)(C)[C@H](c1nc(-c2cc(F)ccc2F)cn1Cc1ccccc1)N(CC[C@H](N)CF)C(=O)CO [Compound IIa]
GI50 ([1]; HCT-116, 24 h): > 5 nM | GI50 ([1]; HCT-116, 48 h): 0.11 nM | GI50 ([1]; HCT-116, 72 h): 0.13 nM | GI50 ([2]; Colo-205, 24 h): > 5 nM | GI50 ([2]; Colo-205, 48 h): 0.18 nM | GI50 ([2]; Colo-205, 72 h): 0.19 nM | GI50 ([3]; MV4;11, 24 h): 0.05 nM | GI50 ([3]; MV4;11, 48 h): 0.04 nM | GI50 ([3]; MV4;11, 72 h): 0.04 nM
